Experimental data as given in patent publication US20100168083A1, “ADAMANTANE DERIVATIVES FOR THE TREATMENT OF THE METABOLIC SYNDROME” (priority 2006, published 2010).

Molecular target: T1, h-11βHSD1 (Homo sapiens, UniProt P28845)
T1 construct: made in house; host or cells: yeast
Assay: 11βHSD1 enzyme assay (SPA)
Type: biochemical
Conditions: extract of yeast transformed with h-11βHSD1; 120 nM 3H-cortisone; 60 min at 30° C.
Method: 11βHSD1 Enzyme Assay Materials ^3H-cortisone and anti-rabbit Ig coated scintillation proximity assay (SPA) beads were purchased from Amersham Pharmacia Biotech, β-NADPH was from Sigma and rabbit anti-cortisol antibodies were from Fitzgerald. […] The test compounds were dissolved in DMSO (10 mM). All dilutions were performed in a buffer containing 50 mM TRIS-HCl (Sigma Chemical Co), 4 mM EDTA (Sigma Chemical Co), 0.1% BSA (Sigma Chemical Co), 0.01% Tween-20 (Sigma Chemical Co) and 0.005% bacitracin (Novo Nordisk A/S), pH=7.4. Optiplate 96 wells plates were supplied by Packard. The amount of ^3H-cortisol bound to the SPA beads was measured on TopCount NXT, Packard. […] The reaction was initiated by mixing the different components and was allowed to proceed under shaking for 60 min at 30° C. The reaction was stopped be the addition of 10 fold excess of a stopping buffer containing 500 μM carbenoxolone and 1 μM cortisone. Data was analysed using GraphPad Prism software.

T1 sequence (P28845 whole entry): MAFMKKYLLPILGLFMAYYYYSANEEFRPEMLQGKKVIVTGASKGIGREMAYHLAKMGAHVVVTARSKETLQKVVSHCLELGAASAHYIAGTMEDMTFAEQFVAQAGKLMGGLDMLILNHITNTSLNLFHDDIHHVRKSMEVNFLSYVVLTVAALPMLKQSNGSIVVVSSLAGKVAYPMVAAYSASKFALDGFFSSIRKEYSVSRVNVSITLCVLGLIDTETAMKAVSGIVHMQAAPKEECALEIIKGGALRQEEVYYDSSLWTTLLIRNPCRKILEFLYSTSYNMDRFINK

`O=C(N1CCC(COc2ccccn2)CC1)[C@]12C[C@H]3C[C@H](C[C@H](C3)C1)C2` [Example 6] gave an IC50 of 835 nM.

`O=C(O)c1ccc(OCCC2CCN(C(=O)[C@]34C[C@H]5C[C@H](C[C@H](C5)C3)C4)CC2)cc1` [Example 3, 4-{2-[1-(Tricyclo[3.3.1.1.3.7]decanane-1-carbonyl)-piperidin-4-yl]-ethoxy}-benzoic acid] was tested, and the IC50 was 1320 nM.
